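A five-concentration, 48-hour dose response in 96-well plates underlies each endpoint, interpolated linearly between surrounding concentrations. TGI: concentration producing complete growth inhibition.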
Tests used:
Experiment in all cases: growth of human tumour cells (NCI), 48 h
M19-MEL melanoma = tested on: M19-MEL melanoma
EKVX NSCLC = tested on: EKVX NSCLC
SF-539 CNS = tested on: SF-539 CNS
A498 renal = tested on: A498 renal
DMS 114 small cell lung = tested on: DMS 114 small cell lung
OVCAR-8 ovarian = tested on: OVCAR-8 ovarian
K-562 leukemia = tested on: K-562 leukemia
HCT-116 colon = tested on: HCT-116 colon
UACC-62 melanoma = tested on: UACC-62 melanoma
HCT-15 colon = tested on: HCT-15 colon
TK-10 renal = tested on: TK-10 renal
NCI-H23 lung = tested on: NCI-H23 lung
SK-MEL-28 melanoma = tested on: SK-MEL-28 melanoma
SF-268 CNS = tested on: SF-268 CNS
A549 NSCLC = tested on: A549 NSCLC
SK-MEL-5 melanoma = tested on: SK-MEL-5 melanoma
LXFL 529 NSCLC = tested on: LXFL 529 NSCLC
SNB-78 CNS = tested on: SNB-78 CNS
SNB-19 CNS = tested on: SNB-19 CNS
RPMI-8226 leukemia = tested on: RPMI-8226 leukemia
NCI-H460 lung = tested on: NCI-H460 lung
MOLT-4 leukemia = tested on: MOLT-4 leukemia
SK-MEL-2 melanoma = tested on: SK-MEL-2 melanoma
XF 498 CNS = tested on: XF 498 CNS
IGROV1 ovarian = tested on: IGROV1 ovarian
M14 melanoma = tested on: M14 melanoma
786-0 renal = tested on: 786-0 renal
OVCAR-5 ovarian = tested on: OVCAR-5 ovarian
HOP-18 NSCLC = tested on: HOP-18 NSCLC
OVCAR-3 ovarian = tested on: OVCAR-3 ovarian
CCRF-CEM leukemia = tested on: CCRF-CEM leukemia
SN12C renal = tested on: SN12C renal
U251 CNS = tested on: U251 CNS
OVCAR-4 ovarian = tested on: OVCAR-4 ovarian
SF-295 CNS = tested on: SF-295 CNS
SK-OV-3 ovarian = tested on: SK-OV-3 ovarian
DLD-1 colon = tested on: DLD-1 colon
CAKI-1 renal = tested on: CAKI-1 renal
LOX IMVI melanoma = tested on: LOX IMVI melanoma
COLO 205 colon = tested on: COLO 205 colon
ACHN renal = tested on: ACHN renal
UACC-257 melanoma = tested on: UACC-257 melanoma
KM12 colon = tested on: KM12 colon
MALME-3M melanoma = tested on: MALME-3M melanoma
HOP-92 NSCLC = tested on: HOP-92 NSCLC
DMS 273 small cell lung = tested on: DMS 273 small cell lung
HOP-62 NSCLC = tested on: HOP-62 NSCLC
RXF-631 renal = tested on: RXF-631 renal
SW-620 colon = tested on: SW-620 colon
HCC-2998 colon = tested on: HCC-2998 colon
HL-60(TB) leukemia = tested on: HL-60(TB) leukemia
KM20L2 colon = tested on: KM20L2 colon
NCI-H226 lung = tested on: NCI-H226 lung
RXF 393 renal = tested on: RXF 393 renal
UO-31 renal = tested on: UO-31 renal
SNB-75 CNS = tested on: SNB-75 CNS
SR leukemia = tested on: SR leukemia
HT29 colon = tested on: HT29 colon

SMILES: Cc1ccc(C2=C(c3ccccc3)C(Br)(c3ccc(C)cc3)C(c3ccccc3)=C2c2ccc(C)cc2)cc1
- TGI (M19-MEL melanoma): > 100 µM
- TGI (EKVX NSCLC): > 100 µM
- TGI (SF-539 CNS): > 100 µM
- TGI (A498 renal): > 100 µM
- TGI (DMS 114 small cell lung): > 100 µM
- TGI (OVCAR-8 ovarian): > 100 µM
- TGI (K-562 leukemia): > 100 µM
- TGI (HCT-116 colon): > 100 µM
- TGI (UACC-62 melanoma): > 100 µM
- TGI (HCT-15 colon): > 100 µM
- TGI (TK-10 renal): > 100 µM
- TGI (NCI-H23 lung): > 100 µM
- TGI (SK-MEL-28 melanoma): > 100 µM
- TGI (SF-268 CNS): > 100 µM
- TGI (A549 NSCLC): > 100 µM
- TGI (SK-MEL-5 melanoma): > 100 µM
- TGI (LXFL 529 NSCLC): > 100 µM
- TGI (SNB-78 CNS): > 100 µM
- TGI (SNB-19 CNS): > 100 µM
- TGI (RPMI-8226 leukemia): > 100 µM
- TGI (NCI-H460 lung): > 100 µM
- TGI (MOLT-4 leukemia): > 100 µM
- TGI (SK-MEL-2 melanoma): > 100 µM
- TGI (XF 498 CNS): > 100 µM
- TGI (IGROV1 ovarian): > 100 µM
- TGI (M14 melanoma): > 100 µM
- TGI (786-0 renal): > 100 µM
- TGI (OVCAR-5 ovarian): > 100 µM
- TGI (HOP-18 NSCLC): > 100 µM
- TGI (OVCAR-3 ovarian): > 100 µM
- TGI (CCRF-CEM leukemia): > 100 µM
- TGI (SN12C renal): > 100 µM
- TGI (U251 CNS): > 100 µM
- TGI (OVCAR-4 ovarian): > 100 µM
- TGI (SF-295 CNS): > 100 µM
- TGI (SK-OV-3 ovarian): > 100 µM
- TGI (DLD-1 colon): > 100 µM
- TGI (CAKI-1 renal): > 100 µM
- TGI (LOX IMVI melanoma): > 100 µM
- TGI (COLO 205 colon): > 100 µM
- TGI (ACHN renal): > 100 µM
- TGI (UACC-257 melanoma): > 100 µM
- TGI (KM12 colon): > 100 µM
- TGI (MALME-3M melanoma): > 100 µM
- TGI (HOP-92 NSCLC): > 100 µM
- TGI (DMS 273 small cell lung): > 100 µM
- TGI (HOP-62 NSCLC): > 100 µM
- TGI (RXF-631 renal): > 100 µM
- TGI (SW-620 colon): > 100 µM
- TGI (HCC-2998 colon): > 100 µM
- TGI (HL-60(TB) leukemia): > 100 µM
- TGI (KM20L2 colon): > 100 µM

SMILES: N#CCN1C(=O)c2cccc3cc([N+](=O)[O-])cc(c23)C1=O
- TGI (M19-MEL melanoma): 44.5 µM
- TGI (EKVX NSCLC): > 100 µM
- TGI (SF-539 CNS): > 100 µM
- TGI (A498 renal): > 100 µM
- TGI (DMS 114 small cell lung): > 100 µM
- TGI (OVCAR-8 ovarian): > 100 µM
- TGI (K-562 leukemia): > 100 µM
- TGI (HCT-116 colon): > 100 µM
- TGI (UACC-62 melanoma): 60.5 µM
- TGI (HCT-15 colon): > 100 µM
- TGI (TK-10 renal): 95.6 µM
- TGI (NCI-H23 lung): > 100 µM
- TGI (SK-MEL-28 melanoma): > 100 µM
- TGI (SF-268 CNS): > 100 µM
- TGI (A549 NSCLC): > 100 µM
- TGI (SK-MEL-5 melanoma): > 100 µM
- TGI (LXFL 529 NSCLC): > 100 µM
- TGI (SNB-78 CNS): > 100 µM
- TGI (NCI-H226 lung): 62.4 µM
- TGI (SNB-19 CNS): > 100 µM
- TGI (RPMI-8226 leukemia): > 100 µM
- TGI (NCI-H460 lung): > 100 µM
- TGI (MOLT-4 leukemia): > 100 µM
- TGI (SK-MEL-2 melanoma): 22.2 µM
- TGI (RXF 393 renal): > 100 µM
- TGI (XF 498 CNS): 68.3 µM
- TGI (IGROV1 ovarian): > 100 µM
- TGI (M14 melanoma): > 100 µM
- TGI (786-0 renal): > 100 µM
- TGI (OVCAR-5 ovarian): > 100 µM
- TGI (HOP-18 NSCLC): > 100 µM
- TGI (OVCAR-3 ovarian): 88.6 µM
- TGI (CCRF-CEM leukemia): > 100 µM
- TGI (UO-31 renal): > 100 µM
- TGI (SN12C renal): > 100 µM
- TGI (U251 CNS): > 100 µM
- TGI (OVCAR-4 ovarian): > 100 µM
- TGI (SNB-75 CNS): > 100 µM
- TGI (SF-295 CNS): > 100 µM
- TGI (SK-OV-3 ovarian): > 100 µM
- TGI (DLD-1 colon): > 100 µM
- TGI (LOX IMVI melanoma): 66.8 µM
- TGI (COLO 205 colon): > 100 µM
- TGI (ACHN renal): > 100 µM
- TGI (UACC-257 melanoma): 83.1 µM
- TGI (KM12 colon): > 100 µM
- TGI (SR leukemia): 41.8 µM
- TGI (MALME-3M melanoma): 92.7 µM
- TGI (HOP-92 NSCLC): > 100 µM
- TGI (DMS 273 small cell lung): > 100 µM
- TGI (HT29 colon): > 100 µM
- TGI (HOP-62 NSCLC): > 100 µM
- TGI (SW-620 colon): > 100 µM
- TGI (HCC-2998 colon): > 100 µM
- TGI (HL-60(TB) leukemia): 56.4 µM
- TGI (KM20L2 colon): > 100 µM
